# Where “and” joins values, the source holds several entries; their conditions need not be identical. Identical values can stand only once.
# Experiments:
# [1] = molecular target: BSA (Bos taurus, UniProt P02769); assay: Fluorescence spectra of HX103 with BSA (Fig. 2c); format: binding
# [2] = tested on: H1975; assay: Western blot of EGFR activation and downstream AKT and ERK1/2 phosphorylation; format: cell-based, human; details: for p-kinase / kinase pAKT/AKT / p-kinase / kinase pEGFR/EGFR / p-kinase / kinase pERK/ERK: Fig. 2h H1975, DMSO = 1, n=1-3
# Procedure: (§1) Western blotting analysis was performed to investigate the expression of EGFR and downstream signaling pathway in various cancer cells. Cells were added at a density of 5 × 10^5 per well in six-well plates and serum-starved in DMEM without FBS. […] After a PBS washing step, the cells were harvested and lysed in RIPA lysis buffer (Thermo Scientific, #89900) on ice for 20 min. After sonication, cell lysates were centrifuged at 12,000×g at 4 °C for 20 min. The supernatant was collected and protein concentration was determined by a BCA protein quantitation kit (Vazyme) and normalized to 2 mg/mL. Subsequently, 20 µL of protein sample was loaded to each lane and resolved on a 10% SDS-PAGE gel. After that, proteins on the gel were transferred onto polyvinylidene difluoride (PVDF) membranes (0.45 µm, Amersham Bioscience). PVDF membranes were blocked with 5% BSA blocking solution for 2 h at room temperature, followed by incubation with different primary antibodies (4 °C, overnight), including EGFR (#4267, 1:1000), phospho-EGFR (#3777, 1:1000), Akt (#4685, 1:1000), phospho-Akt (#4060, 1:1000), ERK1/2 (#4695, 1:1000), phospho-ERK1/2 (#4370, 1:2000) and GAPDH (#5174, 1:2000). Next, the membranes were washed by TBST buffer (Tris buffer with 0.1% Tween-20) for three times, followed by incubation with anti-rabbit IgG (HRP-linked antibody, #7074, 1:5000) for 1 h at room temperature. Finally, the blots were washed in PBST and immunoreactive proteins were detected using a luminal solution with ECL enhancer and H2O2 by ChemiDoc MP (BioRad) with Image Lab 6.0 software. The band density of each band was quantified and normalized to that of the corresponding GAPDH band to correct the possible differences in the content of protein loading. Each experiment was repeated 3 times for statistical analysis, and uncropped blots are in Source Data.
# [3] = tested on: A549; assay: as above; format: cell-based, human; details: for p-kinase / kinase pAKT/AKT / p-kinase / kinase pEGFR/EGFR / p-kinase / kinase pERK/ERK: Fig. 2j A549, DMSO = 1, n=1-3
# Procedure: as §1
# [4] = tested on: Hela; assay: as above; format: cell-based, human; details: HX103 0 to 10 µM, EGF 25 ng/mL
# Procedure: as §1
# [5] = tested on: A431; assay: as above; format: cell-based, human
# Procedure: as §1
# [6] = tested on: HCC827; assay: as above; format: cell-based, human
# Procedure: as §1
# [7] = tested on: biopsy samples from NSCLC patients; assay: HX103-based multicolor FACS, biopsy samples; format: cell-based, human
# [8] = tested on: H1975 cells; assay: Subcellular co-localization of HX103 (confocal); format: cell-based, human; details: HX103 5 µM, 0.5 h, ER/Mito/Lyso trackers
# Procedure: Supplementary Figure 6. Application of HX103 in living cells. (a-c) Subcellular co-localization of HX103 with Lyso tracker (a), Mito tracker (b) or ER tracker (c). H1975 cells were treated with HX103 (5 µM, 0.5 h) and stained with Lyso tracker ([…], 30 min), Mito tracker (100 nM, 15 min) or ER tracker (500 nM, 15 min). After a PBS washing, the cells were used for confocal microscopy. Scale bar, 20 µm. Three biological independent experiments were repeated with similar results. (d) The mean fluorescence intensity analysis along white arrows in the overlay image in (a-c). Source data are provided as a Source Data file.
# (1 picture or pasted object on this page, not shown here)
# [9] = concentration 0.3 (unit not given)
# [10] = concentration 1 (unit not given)
# [11] = concentration 3 (unit not given)
# [12] = concentration 10 (unit not given)
# [13] = Fig. 2i A431, concentration 0.3 (unit not given), DMSO = 1, n=1-3
# [14] = Fig. 2i A431, concentration 1 (unit not given), DMSO = 1, n=1-3
# [15] = Fig. 2i A431, concentration 3 (unit not given), DMSO = 1, n=1-3
# [16] = Fig. 2i A431, concentration 10 (unit not given), DMSO = 1, n=1-3
# [17] = Fig. 6d, Mutation, average over patients
# [18] = Fig. 6d, Mutation, one value per patient
# [19] = Fig. 6d, WT, average over patients
# [20] = Fig. 6d, WT, one value per patient
# Chain of BSA (P02769 25-607): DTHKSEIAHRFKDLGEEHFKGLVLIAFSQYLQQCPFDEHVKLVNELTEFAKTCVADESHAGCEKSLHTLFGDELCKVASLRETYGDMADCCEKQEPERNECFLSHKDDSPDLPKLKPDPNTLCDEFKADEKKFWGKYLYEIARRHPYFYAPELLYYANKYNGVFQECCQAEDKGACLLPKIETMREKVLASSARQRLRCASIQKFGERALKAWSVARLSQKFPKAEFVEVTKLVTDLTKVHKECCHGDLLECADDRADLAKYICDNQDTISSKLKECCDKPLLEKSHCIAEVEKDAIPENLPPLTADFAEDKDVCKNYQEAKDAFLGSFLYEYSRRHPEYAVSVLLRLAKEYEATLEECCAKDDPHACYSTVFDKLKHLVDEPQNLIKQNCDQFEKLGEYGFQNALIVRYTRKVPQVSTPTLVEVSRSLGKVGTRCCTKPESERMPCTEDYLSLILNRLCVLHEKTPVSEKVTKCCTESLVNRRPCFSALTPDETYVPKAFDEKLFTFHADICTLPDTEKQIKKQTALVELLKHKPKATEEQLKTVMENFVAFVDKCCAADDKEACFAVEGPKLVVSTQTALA
compound,measurement,setting,value
COc1cc2c(Nc3ccc(F)c(Cl)c3)ncnc2cc1OCCCNc1ccc(S(=O)(=O)N(C)C)c2nonc12 [HX103],"Fluorescence intensity, BSA",[1]; wavelength 666 nm,1883.79
same,"Fluorescence intensity, BSA",[1]; wavelength 669 nm,1770.88
same,"Fluorescence intensity, BSA",[1]; wavelength 671 nm,1700.55
same,"Fluorescence intensity, BSA",[1]; wavelength 673 nm,1676.53
same,"Fluorescence intensity, BSA",[1]; wavelength 676 nm,1671.89
same,"Fluorescence intensity, BSA",[1]; wavelength 678 nm,1658.01
same,"Fluorescence intensity, BSA",[1]; wavelength 681 nm,1606.53
same,"Fluorescence intensity, BSA",[1]; wavelength 683 nm,1507.19
same,"Fluorescence intensity, BSA",[1]; wavelength 686 nm,1380.4
same,"Fluorescence intensity, BSA",[1]; wavelength 688 nm,1249.52
same,"Fluorescence intensity, BSA",[1]; wavelength 690 nm,1137.89
same,"Fluorescence intensity, BSA",[1]; wavelength 693 nm,1060.59
same,"Fluorescence intensity, BSA",[1]; wavelength 695 nm,1011.56
same,"Fluorescence intensity, BSA",[1]; wavelength 698 nm,981.361
same,"Fluorescence intensity, BSA",[1]; wavelength 700 nm,960.577
same,p-kinase / kinase pAKT/AKT,[2]; [9],0.698 and 0.724 and 0.636
same,p-kinase / kinase pEGFR/EGFR,[2]; [9],0.558 and 0.543 and 0.573
same,p-kinase / kinase pERK/ERK,[2]; [9],1.210 and 0.879 and 1.031
same,p-kinase / kinase pAKT/AKT,[2]; [10],0.488 and 0.317
same,p-kinase / kinase pEGFR/EGFR,[2]; [10],0.199 and 0.313 and 0.331
same,p-kinase / kinase pERK/ERK,[2]; [10],0.535 and 0.443 and 0.459
same,p-kinase / kinase pAKT/AKT,[2]; [11],0.579 and 0.573 and 0.560
same,p-kinase / kinase pERK/ERK,[2]; [11],0.840 and 0.618 and 0.696
same,p-kinase / kinase pAKT/AKT,[2]; [12],0.468 and 0.342 and 0.500
same,p-kinase / kinase pEGFR/EGFR,[2]; [12],0.219 and 0.161 and 0.276
same,p-kinase / kinase pERK/ERK,[2]; [12],0.660 and 0.681 and 0.939
same,effect on phosphorylation of EGFR and downstream proteins,"[2]; HX103 0 to 10 µM, EGF 25 ng/mL",a certain resistance
same,p-kinase / kinase pAKT/AKT,[3]; [9],0.202 and 0.332 and 0.222
same,p-kinase / kinase pEGFR/EGFR,[3]; [9],0.116 and 0.065 and 0.105
same,p-kinase / kinase pERK/ERK,[3]; [9],0.558 and 0.86 and 0.689
same,p-kinase / kinase pAKT/AKT,[3]; [10],0.118 and 0.103 and 0.095
same,p-kinase / kinase pERK/ERK,[3]; [10],0.486 and 0.455 and 0.485
same,p-kinase / kinase pEGFR/EGFR,[3]; [11],0.07 and 0.045 and 0.073
same,p-kinase / kinase pERK/ERK,[3]; [11],0.34 and 0.535 and 0.512
same,p-kinase / kinase pAKT/AKT,[3]; [12],0.014 and 0.013 and 0.015
same,p-kinase / kinase pERK/ERK,[3]; [12],0.39 and 0.424 and 0.512
same,effect on wild-type EGFR phosphorylation,"[3]; HX103 0 to 10 µM, EGF 25 ng/mL",significantly inhibited
same,effect on wild-type EGFR phosphorylation,[4],significantly inhibited
same,p-kinase / kinase pAKT/AKT,[5]; [13],0.604 and 0.491 and 0.502
same,p-kinase / kinase pERK/ERK,[5]; [13],0.593 and 0.802 and 0.793
same,p-kinase / kinase pAKT/AKT,[5]; [14],0.33 and 0.312 and 0.321
same,p-kinase / kinase pERK/ERK,[5]; [14],0.301 and 0.442 and 0.417
same,p-kinase / kinase pAKT/AKT,[5]; [15],0.264 and 0.189 and 0.222
same,p-kinase / kinase pERK/ERK,[5]; [15],0.169 and 0.13 and 0.175
same,p-kinase / kinase pAKT/AKT,[5]; [16],0.241 and 0.197 and 0.219
same,p-kinase / kinase pEGFR/EGFR,[5]; [16],0.067 and 0.066 and 0.064
same,effect on wild-type EGFR phosphorylation,"[5]; HX103 0 to 10 µM, EGF 25 ng/mL",significantly inhibited
same,p-kinase / kinase pAKT/AKT,"[6]; Fig. 2g HCC827, concentration 0.3 (unit not given), DMSO = 1, n=1-3",0.4984 and 0.298 and 0.4432
same,p-kinase / kinase pAKT/AKT,"[6]; Fig. 2g HCC827, concentration 1 (unit not given), DMSO = 1, n=1-3",0.1684 and 0.1251 and 0.1468
same,p-kinase / kinase pERK/ERK,"[6]; Fig. 2g HCC827, concentration 10 (unit not given), DMSO = 1, n=1-3",0.1947 and 0.3677 and 0.3512
same,effect on phosphorylation of EGFR and downstream proteins,"[6]; HX103 0 to 10 µM, EGF 25 ng/mL",inhibited the phosphorylation of EGFR and the downstream proteins
same,"mean ratio of EGFR(+)HX103(+), responders","[7]; CR or PR, n = 9",43.5 ± 2.8%
same,"mean ratio of HX103(+), responders","[7]; CR or PR, n = 9",54.1 ± 3.3%
same,EGFR(+) HX103 (+) (%) AVE,"[7]; Fig. 6f, CR/PR, average",43.5167%
same,HX103 (+) (%) AVE,"[7]; Fig. 6f, CR/PR, average",54.1%
same,EGFR(+) HX103 (+) (%) AVE,"[7]; Fig. 6f, SD/PD, average",9.47%
same,HX103 (+) (%) AVE,"[7]; Fig. 6f, SD/PD, average",17.0025%
same,EGFR(+) HX103 (+) (%),"[7]; Fig. 6g, Patient (No. 3)",26.16%
same,EGFR(+) HX103 (+) (%),"[7]; Fig. 6h, Patient (No. 7)",34.2%
same,HX103(+) (%),"[7]; Fig. 6h, Patient (No. 7)",51.5%
same,EGFR(+) HX103 (+) (%) AVE,[7]; [17],34.0833%
same,HX103 (+) (%) AVE,[7]; [17],48.2347%
same,EGFR(+) HX103 (+) (%),[7]; [18],47.7% and 46.42% and 26.16% and 37.95% and 54.7% and 42.61% and 34.2% and 4.84% and 50.92% and 41.57% and 2.07% and 30.8% and 55.7% and 4.81%
same,HX103(+) (%),[7]; [18],47.95% and 53.5% and 30.41% and 49.49% and 61.89% and 48.6% and 51.54% and 13.72% and 92.61% and 50.98% and 11.82% and 76% and 77.45% and 45.5% and 12.06%
same,EGFR(+) HX103 (+) (%) AVE,[7]; [19],3.4875%
same,HX103 (+) (%) AVE,[7]; [19],10.0231%
same,EGFR(+) HX103 (+) (%),[7]; [20],2.605% and 13.7% and 4.44% and 3.27% and 0.6% and -0.34% and 1.35% and 4.89% and 0.098% and 0.24% and 1.08% and 10.76% and 4.24% and 2.1% and 0.447% and 6.32%
same,HX103(+) (%),[7]; [20],5.005% and 21.85% and 10.96% and 7.41% and 3.16% and -1.81% and 3.59% and 12.92% and 4.005% and 1.16% and 7.12% and 18.43% and 19.52% and 10.47% and 20.56% and 16.02%
same,"mean ratio of EGFR(+)HX103(+), non-responders","[7]; SD or PD, n = 4",9.5 ± 5.6%
same,"mean ratio of HX103(+), non-responders","[7]; SD or PD, n = 4",17.0 ± 4.5%
same,subcellular distribution of HX103-labeled EGFR,[8],internalized and translocated in the endoplasmic reticulum
